What was measured:
[1] = system: patient-derived primary gastric cancer cells; experiment: Patient-derived gastric cancer cell xenograft model in zebrafish, fluorescence quantification; assay type: in vivo, human; conditions: 4000 μM and 400 μM soak for three days, day 7 after the injection
Procedure: (§1) The patient-derived clinical tissue biopsy that was a surgical specimen of gastric cancer was placed in physiological saline. The blood clot, necrotic tissue, fat and connective tissues on the surface of the tumor tissue were removed under aseptic conditions. The tissue was cut by an ophthalmic scissor after sterilization, and washed 2 times with sterile phosphate buffer (pH 7.4). A small amount of phosphate buffer was added, and the tissue was repeatedly cut with an ophthalmic scissor until the tissue became a paste and was about 1 mm^3. 0.25% trypsin was added and the tissue was digested at 37° C. for 10 minutes. […] The cells were re-suspended in RPMI-1640 medium containing 10% FBS (fetal calf serum).
(§2) The primary cells obtained by dissociation were stained with CM-Dil, where the final dye concentration was 2 μg/ml, and the staining time was 1 hour. The dye was removed by centrifugation, and the cells were washed with a phosphate buffer and re-suspended to a cell density of 1×10^4/μl.
(§3) The stained cells were filled into a microinjector. […]
Within 7 days after the injection, the growth, metastasis and spread of the cells derived from the patient in the zebrafish were observed under a fluorescence microscopy and photographed. […]

SGC-7901 = experiment: Human gastric cancer cell line xenograft model in zebrafish (SGC-7901); assay type: in vivo; conditions: SGC-7901 xenograft; 4000 μM and 400 μM soak for three days; day 7 after injection
Procedure: (§4) 4000 μM and 400 μM5-FU were used to soak the zebrafish embryos injected with gastric cancer cell lines (SGC-7901 and AGS) (constructed as in Example 1) for three consecutive days, and 0.1% DMSO was used as a solvent control.
(§5) The red cells were photographed under a fluorescence microscope, and the red fluorescence intensity was quantified by Image Pro Plus software to calculate the anti-tumor effect of 5-FU by a formula: Tumor inhibition rate of the drug=(the fluorescence intensity of the treatment group/the fluorescence intensity of the control group)*100% (see FIG. 4).

AGS = experiment: Human gastric cancer cell line xenograft model in zebrafish (AGS); assay type: in vivo; conditions: 4000 μM and 400 μM soak for three days, day 7 after injection
Procedure: as §4, §5

gastric cancer = experiment: Clinical outcome of 5-FU treatment in the gastric cancer patients; assay type: in vivo, human
[2] = system: patient-derived primary lung cancer cells; experiment: Patient-derived lung cancer cell xenograft model in zebrafish, fluorescence quantification; assay type: in vivo, human; conditions: 50-μM and 5-μM soak for three days, day 7 after the injection
Procedure: as §1, with “lung” for “gastric”, “mm^3 in size.” for “mm^3.”, “resuspended” for “re-suspended”
as §2, §3
Within 4 days after the injection, the growth, metastasis and spread of the cells derived from the patient in the zebrafish were observed under a fluorescence microscopy and photographed. […]

A549 = experiment: Human lung cancer cell line xenograft model in zebrafish (A549); assay type: in vivo; conditions: 50 μM and 5 μM soak for three days, day 7 after injection
zebrafish embryos = zebrafish embryos two days after fertilization, treated for 3 days
Procedure: For the quantitative analysis, the antitumor effect is calculated according to the following formula: the tumor inhibition rate of the drug=(the fluorescence intensity of the treatment group/the fluorescence intensity of the control group)*100%.
1. Four groups, each group having four randomly selected zebrafish embryos that were two days old after fertilization, were placed in a solution of curcumin containing 0.1% DMSO. The curcumin concentrations were 10 μM, 30 μM, 50 μM, and 70 μM, respectively, and the treatment was continued for 3 days.

lung cancer = experiment: Clinical outcome of drug treatment in the lung cancer patients; assay type: in vivo, human

O=c1[nH]cc(F)c(=O)[nH]1 [5-FU, 5-fluorouracil]
sensitivity of patient-derived gastric cancer cells to 5-FU (tumor inhibition effect) ([1]; #1 and #2 patients): not sensitive | sensitivity of patient-derived gastric cancer cells to 5-FU (tumor proliferation inhibition) ([1]; #3 and #4 patients): sensitive | sensitivity of gastric cancer cell line to 5-FU (SGC-7901): sensitive | sensitivity of gastric cancer cell line to 5-FU (AGS): sensitive | clinical effect of 5-FU in the treatment of the patients (gastric cancer; #1 and #2 patients with gastric cancer): not significant | clinical symptoms after treatment with 5-FU (gastric cancer; #3 and #4 patients with gastric cancer): significantly improved

COc1cc2ncnc(Nc3ccc(F)c(Cl)c3)c2cc1OCCCN1CCOCC1 [gefitinib]
sensitivity of patient-derived lung cancer cells to gefitinib (tumor inhibition effect) ([2]; *5 and *6 patients): sensitive | sensitivity of patient-derived lung cancer cells to gefitinib ([2]; *7 and *8 patients): not sensitive | sensitivity of lung cancer cell line to gefitinib (A549): sensitive | highest concentration within the safe range for embryos (zebrafish embryos): 50 µM | clinical effect of gefitinib in the treatment of the patients (lung cancer; *5 and *6 patients with lung cancer): significant | clinical symptoms after treatment (lung cancer; *7 and *8 patients with lung cancer): not significantly improved

CC(=O)O[C@@]12CO[C@@H]1C[C@H](O)[C@@]1(C)C(=O)[C@H](O)C3=C(C)[C@@H](OC(=O)[C@H](O)[C@@H](NC(=O)OC(C)(C)C)c4ccccc4)C[C@@](O)([C@@H](OC(=O)c4ccccc4)[C@H]21)C3(C)C [docetaxel]
highest concentration within the safe range for embryos (zebrafish embryos): 10 µM

COc1cc(/C=C/C(=O)CC(=O)/C=C/c2ccc(O)c(OC)c2)ccc1O [curcumin]
highest concentration within the safe range for embryos (zebrafish embryos): 50 µM
